Results from the NIST ThermoML archive (doi:10.1016/j.jct.2011.02.018).

Assay: xn = mol fraction of the nth substance listed
Settings: 101 kPa, Liquid; for viscosity: Concentric cylinders viscometry; for mass density: Vibrating tube method

COC(C)(C)C [2-methoxy-2-methylpropane] + CCO
Settings	mass density, 303.15 K [kg/m3]	mass density, 308.15 K [kg/m3]	viscosity, 303.15 K [mPa·s]	viscosity, 308.15 K [mPa·s]
x1 = 0.0097	780.44	776.08	0.9713	0.884
x1 = 0.0198	779.64	775.26	0.9506	0.8659
x1 = 0.0301	778.87	774.47	0.9348	0.8484
x1 = 0.0402	778.16	773.74	0.9088	0.8298
x1 = 0.0502	777.63	773.2	0.893	0.8165
x1 = 0.0583	776.91	772.46	0.8745	0.7986
x1 = 0.07	776.08	771.61	0.854	0.7813
x1 = 0.0801	775.37	770.89	0.8364	0.7634
x1 = 0.0861	775.09	770.6	0.8291	0.7578
x1 = 0.1009	774.11	769.6	0.806	0.7369
x1 = 0.154	770.56	765.97	0.7283	0.6689
x1 = 0.2006	767.62	762.96	0.6694	0.6147
x1 = 0.2471	764.79	760.08	0.6185	0.5661
x1 = 0.2975	761.83	757.06	0.5731	0.5259
x1 = 0.3487	758.96	754.12	0.5309	0.4855
x1 = 0.3976	756.32	751.43	0.4954	0.4552
x1 = 0.4532	753.45	748.5	0.4638	0.4257
x1 = 0.5007	751.15	746.15	0.4353	0.3994
x1 = 0.5505	748.85	743.8	0.4155	0.379
x1 = 0.5998	746.63	741.53	0.3967	0.363
x1 = 0.6484	744.43	739.29	0.3808	0.3487
x1 = 0.6995	742.19	737	0.3632	0.3313
x1 = 0.749	740.14	734.91	0.3459	0.3273
x1 = 0.7995	738.06	732.8	0.3381	0.3084
x1 = 0.8496	736.08	730.78	0.3271	0.3025
x1 = 0.9009	734.07	728.75	0.3159	0.2963
x1 = 0.9093	733.77	728.45	0.3136	0.2948
x1 = 0.9166	733.47	728.14	0.3143	0.2965
x1 = 0.9299	732.9	727.57	0.3136	0.2908
x1 = 0.9398	732.51	727.17	0.3107	0.2884
x1 = 0.9501	732.09	726.76	0.3068	0.2842
x1 = 0.9597	731.71	726.36	0.3066	0.2829
x1 = 0.968	731.37	726.03	0.3062	0.282
x1 = 0.9802	730.87	725.52	0.304	0.2809
x1 = 0.9868	730.61	725.26	0.3005	0.2794
